Test results reported in US20220340597A1, “HEXAHYDRO-1H-PYRAZINO[1,2-A]PYRAZINE COMPOUNDS FOR THE TREATMENT OF AUTOIMMUNE DISEASE” (Hoffmann-La Roche Inc., priority 2019, published 2022).

Assays:
human TLR9 = target: T1, human TLR9 (Homo sapiens, UniProt Q9NR96); experiment: HEK293-Blue-hTLR-9 cells assay; assay type: cell-based; conditions: HEK293-Blue-hTLR9 cells, ODN2006 stimulation, 20 hrs, SEAP reporter; read-out: HEK/hTLR9 IC50
T1 construct: host or cells: HEK293 (HEK-Blue hTLR9)
T1 sequence (Q9NR96 26-1032): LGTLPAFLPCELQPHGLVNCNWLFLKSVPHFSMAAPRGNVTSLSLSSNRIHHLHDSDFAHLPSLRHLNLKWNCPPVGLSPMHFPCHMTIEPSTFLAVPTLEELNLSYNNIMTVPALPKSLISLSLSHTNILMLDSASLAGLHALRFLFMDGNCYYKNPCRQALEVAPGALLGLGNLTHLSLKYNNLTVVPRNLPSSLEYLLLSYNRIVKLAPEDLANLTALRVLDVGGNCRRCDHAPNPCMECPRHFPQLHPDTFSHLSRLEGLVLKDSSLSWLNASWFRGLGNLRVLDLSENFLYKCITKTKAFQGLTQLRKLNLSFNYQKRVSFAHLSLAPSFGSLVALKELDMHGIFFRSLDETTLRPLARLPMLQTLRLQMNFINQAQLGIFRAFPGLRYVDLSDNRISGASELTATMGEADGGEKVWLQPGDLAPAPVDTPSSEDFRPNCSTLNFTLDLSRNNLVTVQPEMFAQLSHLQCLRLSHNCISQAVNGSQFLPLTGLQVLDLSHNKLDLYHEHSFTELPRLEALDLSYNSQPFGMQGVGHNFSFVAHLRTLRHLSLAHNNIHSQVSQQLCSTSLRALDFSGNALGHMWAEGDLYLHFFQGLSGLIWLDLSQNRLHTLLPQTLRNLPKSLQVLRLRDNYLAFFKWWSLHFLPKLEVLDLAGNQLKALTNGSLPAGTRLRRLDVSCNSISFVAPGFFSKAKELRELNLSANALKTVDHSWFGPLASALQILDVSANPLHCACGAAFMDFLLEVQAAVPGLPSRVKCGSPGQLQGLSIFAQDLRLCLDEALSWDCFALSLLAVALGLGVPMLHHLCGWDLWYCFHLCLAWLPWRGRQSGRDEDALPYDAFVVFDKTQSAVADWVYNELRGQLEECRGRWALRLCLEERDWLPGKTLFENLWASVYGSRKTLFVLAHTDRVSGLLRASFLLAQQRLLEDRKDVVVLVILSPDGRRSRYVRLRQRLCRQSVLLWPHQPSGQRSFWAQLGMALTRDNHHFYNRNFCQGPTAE
Protocol: The following tests were carried out in order to determine the activity of the compounds of formula (I) and (Ia) in HEK293-Blue-hTLR-7/8/9 cells assay.
HEK293-Blue-hTLR-9 Cells Assay:
A stable HEK293-Blue-hTLR-9 cell line was purchased from InvivoGen (Cat. #: hkb-htlr9, San Diego, Calif., USA). These cells were originally designed for studying the stimulation of human TLR9 by monitoring the activation of NF-κB. A SEAP (secreted embryonic alkaline phosphatase) reporter gene was placed under the control of the […] minimal promoter fused to five NF-κB and AP-1-binding sites. The SEAP was induced by activating NF-κB and AP-1 via stimulating HEK-Blue hTLR9 cells with TLR9 ligands. Therefore, the reporter expression was declined by TLR9 antagonist under the stimulation of a ligand, such as ODN2006 (Cat. #: tlr1-2006-1, Invivogen, San Diego, Calif., USA), for incubation of 20 hrs. The cell culture supernatant SEAP reporter activity was determined using QUANTI-Blue™ kit (Cat. #: rep-qb1, Invivogen, San Diego, Calif., USA) at a wavelength of 640 nm, a detection medium that turns purple or blue in the presence of alkaline phosphatase.
Then 20 μL of the supernatant from each well was incubated with 180 μL Quanti-blue substrate solution at 37° C. for 2 h and the absorbance was read at 620-655 nm using a spectrophotometer. The signaling pathway that TLR9 activation leads to downstream NF-κB activation has been widely accepted, and therefore similar reporter assay was modified for evaluating TLR9 antagonist.

hERG channel = target: T2, hERG channel (Homo sapiens, UniProt Q12809); experiment: hERG channel inhibition assay (patch-clamp, CHOhERG cells); assay type: cell-based; conditions: CHOhERG cells, whole-cell patch-clamp; for IC20: human, CHO cells stably expressing hERG (CHOhERG)
T2 construct: expressed in transfected cells; host or cells: CHO (Chinese hamster ovary), CHOhERG
T2 sequence (Q12809 whole entry): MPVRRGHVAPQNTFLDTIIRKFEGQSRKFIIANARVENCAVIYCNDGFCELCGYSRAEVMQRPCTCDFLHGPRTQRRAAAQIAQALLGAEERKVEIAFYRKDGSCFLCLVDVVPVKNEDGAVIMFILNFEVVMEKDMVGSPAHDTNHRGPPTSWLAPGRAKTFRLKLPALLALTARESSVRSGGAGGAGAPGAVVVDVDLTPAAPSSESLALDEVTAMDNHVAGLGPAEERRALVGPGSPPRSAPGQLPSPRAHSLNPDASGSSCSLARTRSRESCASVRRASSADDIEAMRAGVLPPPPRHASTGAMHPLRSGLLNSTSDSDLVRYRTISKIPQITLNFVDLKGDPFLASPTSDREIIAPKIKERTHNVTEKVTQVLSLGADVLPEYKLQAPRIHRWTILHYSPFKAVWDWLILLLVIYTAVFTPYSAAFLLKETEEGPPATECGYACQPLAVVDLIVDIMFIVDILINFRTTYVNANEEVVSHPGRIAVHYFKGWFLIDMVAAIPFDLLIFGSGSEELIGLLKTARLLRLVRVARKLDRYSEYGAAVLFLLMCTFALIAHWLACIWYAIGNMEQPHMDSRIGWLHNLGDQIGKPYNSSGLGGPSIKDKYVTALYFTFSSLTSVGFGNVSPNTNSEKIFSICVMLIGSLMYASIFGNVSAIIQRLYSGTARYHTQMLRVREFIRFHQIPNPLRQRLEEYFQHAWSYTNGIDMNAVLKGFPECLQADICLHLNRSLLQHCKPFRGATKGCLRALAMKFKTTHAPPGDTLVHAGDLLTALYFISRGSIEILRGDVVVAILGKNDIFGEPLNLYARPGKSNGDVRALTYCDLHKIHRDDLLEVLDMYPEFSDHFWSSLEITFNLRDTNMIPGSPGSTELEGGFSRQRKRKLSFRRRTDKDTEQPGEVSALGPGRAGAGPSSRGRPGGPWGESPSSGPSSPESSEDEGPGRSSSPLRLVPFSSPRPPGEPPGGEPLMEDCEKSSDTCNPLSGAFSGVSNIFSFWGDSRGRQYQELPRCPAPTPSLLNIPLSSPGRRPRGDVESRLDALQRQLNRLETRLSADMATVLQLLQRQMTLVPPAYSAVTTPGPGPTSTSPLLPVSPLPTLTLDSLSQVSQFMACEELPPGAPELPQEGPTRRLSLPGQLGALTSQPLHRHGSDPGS
Protocol: hERG Channel Inhibition Assay:
The hERG K^+ channels were cloned in humans and stably expressed in a CHO (Chinese hamster ovary) cell line. CHOhERG cells were used for patch-clamp (voltage-clamp, whole-cell) experiments. Cells were stimulated by a voltage pattern to activate hERG channels and conduct IKhERG currents (rapid delayed outward rectifier potassium current of the hERG channel). After the cells were stabilized for a few minutes, the amplitude and kinetics of IKhERG were recorded at a stimulation frequency of 0.1 Hz (6 bpm). Thereafter, the test compound was added to the preparation at increasing concentrations. For each concentration, an attempt was made to reach a steady-state effect, usually, this was achieved within 3-10 min at which time the next highest concentration was applied. The amplitude and kinetics of IKhERG are recorded in each concentration of the drug which were compared to the control values (taken as 100%). (references: Redfern W S, Carlsson L, Davis A S, Lynch W G, MacKenzie I, Palethorpe S, Siegl P K, Strang I, Sullivan A T, Wallis R, Camm A J, Hammond T G. 2003; Relationships between preclinical cardiac electrophysiology, clinical QT interval prolongation and torsade de pointes for a broad range of drugs: evidence for a provisional safety margin in drug development. Cardiovasc. Res. 58:32-45, Sanguinetti M C, Tristani-Firouzi M. 2006; hERG potassium channels and cardiac arrhythmia. Nature 440:463-469, Webster R, Leishman D, Walker D. 2002; Towards a drug concentration effect relationship for QT prolongation and torsades de pointes. Curr. Opin. Drug Discov. Devel. 5:116-26).
The calculation of hERG IC20/TLR7/8/9 IC50 below serves as early selectivity index to assess hERG liability.

SMILES | IC50 (human TLR9) [nM] | IC50 (hERG channel) [nM] | IC20 (hERG channel) [nM]
C[C@@H]1CN(c2ccc(C#N)c3ncccc23)C[C@@H]2CN(CCc3ccc(N4C[C@@H](N)[C@@H](F)C4)nc3)CCN21 [Example 17, 5-[(4R,9aS)-8-[2-[6-[(3R,4S)-3-amino-4-fluoro-pyrrolidin-1-yl]-3-pyridyl]ethyl]-4-methyl-3,4,6,7,9,9a-hexahydro-1H-pyrazino[1,2-a]pyrazin-2-yl]quinoline-8-carbonitrile] | 47 | > 20000 | > 10000
C[C@@H]1CN(c2ccc(C#N)c3ncccc23)C[C@@H]2CN(CCc3ccc(N4C[C@@H](N)[C@H](F)C4)nc3)CCN21 [Example 18, 5-[(4R,9aS)-8-[2-[6-[(3R,4R)-3-amino-4-fluoro-pyrrolidin-1-yl]-3-pyridyl]ethyl]-4-methyl-3,4,6,7,9,9a-hexahydro-1H-pyrazino[1,2-a]pyrazin-2-yl]quinoline-8-carbonitrile] | 65 | – | –
C[C@@H]1CN(c2ccc(C#N)c3ncccc23)C[C@H]2CN(c3cncc4c3CCNC4)CCN21 [Example 42, 5-[(4R,9aS)-4-methyl-8-(5,6,7,8-tetrahydro-2,7-naphthyridin-4-yl)-3,4,6,7,9,9a-hexahydro-1H-pyrazino[1,2-a]pyrazin-2-yl]quinoline-8-carbonitrile] | 50 | > 10000 | 4350
[2H]c1ccc2c(N3C[C@@H]4CN(c5ncc(N6CC7(CC(N)C7)C6)cc5C)CCN4[C@H](C)C3)ccc(C#N)c2n1 [Example 101, 5-[(4R,9aR)-8-[5-(6-amino-2-azaspiro[3.3]heptan-2-yl)-3-methyl-2-pyridyl]-4-methyl-3,4,6,7,9,9a-hexahydro-1H-pyrazino[1,2-a]pyrazin-2-yl]-2-deuterio-quinoline-8-carbonitrile] | 81 | – | –

More lines, in order of falling IC50 (human TLR9), values ahead:

IC50 (human TLR9) [nM] | SMILES | IC50 (hERG channel) [nM] | IC20 (hERG channel) [nM]
117 | C[C@@H]1CN(c2ccc(C#N)c3ncccc23)C[C@H]2CN(c3cccc4c3CCNC4)CCN21 (relative stereo) [Example 47] | – | –
78 | [2H]c1ccc2c(N3C[C@@H]4CN(CCc5ccc(N6C[C@@H](N)[C@@H](F)C6)nc5)CCN4[C@H](C)C3)ccc(C#N)c2n1 [Example 63, 5-[(4R,9aS)-8-[2-[6-[(3R,4S)-3-amino-4-fluoro-pyrrolidin-1-yl]-3-pyridyl]ethyl]-4-methyl-3,4,6,7,9,9a-hexahydro-1H-pyrazino[1,2-a]pyrazin-2-yl]-2-deuterio-quinoline-8-carbonitrile] | – | –
70 | [2H]c1ccc2c(N3C[C@@H]4CN(c5ncc(N6CCOC[C@H](N)C6)cc5C)CCN4[C@@H](C)C3)ccc(C#N)c2n1 [Example 110, 5-[(4S,9aR)-8-[5-[(6R)-6-amino-1,4-oxazepan-4-yl]-3-methyl-2-pyridyl]-4-methyl-3,4,6,7,9,9a-hexahydro-1H-pyrazino[1,2-a]pyrazin-2-yl]-2-deuterio-quinoline-8-carbonitrile] | – | –
50 | C[C@@H]1CN(c2ccc(C#N)c3ncccc23)C[C@@H]2CN(c3cncc4c3CCNC4)CCN21 [Example 44, 5-[(4R,9aR)-4-methyl-8-(5,6,7,8-tetrahydro-2,7-naphthyridin-4-yl)-3,4,6,7,9,9a-hexahydro-1H-pyrazino[1,2-a]pyrazin-2-yl]quinoline-8-carbonitrile] | – | –
